From article PMC6630832, “3-Vinylazetidin-2-Ones: Synthesis, Antiproliferative and Tubulin Destabilizing Activity in MCF-7 and MDA-MB-231 Breast Cancer Cells” (Pharmaceuticals, 2019)
Where two headings read alike, the source gives them in different places.

Tests used:
[1] = tested on: Hs578T breast cancer cell line; assay: Antiproliferative activity in Hs578T cells; type: cell-based; details: Homo sapiens, Hs-578T
[2] = Cytotoxicity assay in primary murine mammary epithelial cells (alamar blue); type: cell-based, mouse; details: female, CD-1, mouse, primary mammary epithelial cells, 72 h; for viability at 72 h, 10 μM: murine epithelial cells, read-out: % Viable cells; for viability at 72 h: at the compound's IC50 in MCF-7 cells, read-out: % Viable cells at IC50
Procedure: (§1) As previously reported mammary glands from 14–18 day pregnant CD-1 mice were used as source and primary mammary epithelial cell cultures were prepared from these. The isolated mammary epithelial cells were seeded at two concentrations (25,000 cells/mL and 50,000 cells/mL). […] After 24 h, the cells were treated with 2 µL volumes of test compound 7s which had been pre-prepared as stock solutions in ethanol to furnish the concentration range of study, 1 nM–100 µM, and re-incubated for a further 72 h. Control wells contained the equivalent volume of the vehicle ethanol (1% v/v). The cytotoxicity was assessed using alamar blue dye.

[3] = tested on: normal murine mammary epithelial cells; assay: as above; type: cell-based, mouse; details: for IC50: Mus musculus, Epithelial cell, alamar blue; for IC50 / % Viable cells at IC50: 72 h; for % Viable cells at IC50: at the compound's IC50 in MCF-7 cells, 25,000 cells/mL
Procedure: as §1

[4] = tested on: microtubule network of MCF-7 cells; assay: Immunofluorescence microscopy; type: cell-based, human; details: 100 nM, 16 h
Procedure: Confocal microscopy was used to study the effects of drug treatment on MCF-7 cytoskeleton. For immunofluorescence, MCF-7 cells were seeded at 1 × 10^5 cells/mL on eight chamber glass slides (BD Biosciences, 2350 Qume Dr, San Jose, CA, USA). Cells were either untreated or treated with vehicle [1% ethanol (v/v)], paclitaxel (1 μM), combretastatin A-4 (100 nM) or compound 7s (100 nM) for 16 h. Following treatment cells were gently washed in PBS, fixed for 20 min with 4% paraformaldehyde in PBS and permeabilised in 0.5% Triton X-100. Following washes in PBS containing 0.1% Tween (PBST), cells were blocked in 5% bovine serum albumin diluted in PBST. Cells were then incubated with mouse monoclonal anti-α-tubulin−FITC antibody (clone DM1A) (Sigma-Aldrich, 2033 Westport Center Dr, St. Louis, MO, USA) (1:100) for 2 h at room temperature. Following washes in PBST, cells were incubated with Alexa Fluor 488 dye (1:450) for 1 h at room temperature. Following washes in PBST, the cells were mounted in Ultra Cruz Mounting Media (Santa Cruz Biotechnology Inc., 10410 Finnell Street, Dallas, TX, USA) containing 4,6-diamino-2-phenolindol dihydrochloride (DAPI). Images were captured by Leica SP8 confocal microscopy with Leica application suite X software (Leica Microsystems CMS GmbH Am Friedensplatz 3 D-68165 Mannheim, Germany). All images in each experiment were collected on the same day using identical parameters. Experiments were performed on three independent occasions.

[5] = tested on: MCF-7 cells; assay: Annexin V/PI apoptotic assay; details: for apoptotic cells (annexin-V positive): MCF-7, 72 h
Procedure: Apoptotic cell death was detected by flow cytometry using Annexin V and propidium iodide (PI). […] Cells were then harvested and prepared for flow cytometric analysis. Cells were washed in 1X binding buffer (20X binding buffer: 0.1M HEPES, pH 7.4; 1.4 M NaCl; 25 mM CaCl2 diluted in dH2O) and incubated in the dark for 30 min on ice in Annexin V-containing binding buffer [1:100]. Cells were then washed once in binding buffer and then re-suspended in PI-containing binding buffer [1:1000]. […] Four populations are produced during the assay Annexin V and PI negative (Q4, healthy cells), Annexin V positive and PI negative (Q3, early apoptosis), Annexin V and PI positive (Q2, late apoptosis) and Annexin V negative and PI positive (Q1, necrosis). Paclitaxel was used as a positive control for cell death

[6] = tested on: EKVX; assay: NCI60 screen (SRB), Non-Small Cell Lung Cancer; type: cell-based; details: Homo sapiens
[7] = tested on: HEK-293T cells; assay: Cytotoxicity in non-tumourigenic HEK-293T cells; type: cell-based, human
[8] = tested on: HOP-92; assay: NCI60 screen (SRB), Non-Small Cell Lung Cancer; type: cell-based; details: Homo sapiens
[9] = Homo sapiens, MCF7, 72 h, read-out: Viable

Compound	viability at 72 h, 10 μM ([2]; 10 μM, 25,000 cells/mL) [%]	viability at 72 h, 10 μM ([2]; 10 μM, 50,000 cells/mL) [%]	viability at 72 h ([2]; 25,000 cells/mL) [%]	viability at 72 h ([2]; 50,000 cells/mL) [%]	IC50 [3] [µM]	% Viable cells at IC50 [3] [%]	effect on microtubule network [4]	further results
COc1ccc(/C=C\c2cc(OC)c(OC)c(OC)c2)cc1O [CA-4, Combretastatin A-4, reference compound]	58	75	74	92.1	> 10	73.6	complete loss of microtubule formation	IC50 ([1]; triple-negative Hs578T cells, read-out: IC50): 8 nM; viability at 0.05 µM [5, 9]: 61.8%; apoptotic cells (annexin-V positive) ([5]; 50 nM): 34.6%
C=CC1C(=O)N(c2cc(OC)c(OC)c(OC)c2)C1c1ccc(OC)cc1 (stereo not drawn) [Compound 7h, 4-(4-Methoxyphenyl)-1-(3,4,5-trimethoxyphenyl)-3-vinylazetidin-2-one]								IC50 [1]: 31 nM; GI50 [6]: 58.3 nM
C=CC1C(=O)N(c2cc(OC)c(OC)c(OC)c2)C1c1ccc(OC)c(O)c1 (stereo not drawn) [Compound 7s, 4-[3-Hydroxy-4-methoxyphenyl]-1-(3,4,5-trimethoxyphenyl)-3-vinylazetidin-2-one]	60	73.3	93	> 90	> 10	93.1	complete loss of microtubule formation	cytotoxicity against non-tumorigenic HEK-293T cells [7]: minimal cytotoxicity; IC50 ([7]; Homo sapiens, non-tumourigenic HEK-293T cells): > 5 µM; cytotoxicity against murine mammary epithelial cells [3]: minimal cytotoxicity; viability at 0.01 µM [5, 9]: 82.8%; viability at 0.1 µM [5, 9]: 64.5%; apoptotic cells (annexin-V positive) ([5]; 10 nM): About 13.6%; apoptotic cells (annexin-V positive) ([5]; 100 nM): 31.9%
C=CC1C(=O)N(c2cc(OC)c(OC)c(OC)c2)C1c1ccc(OC)c(N)c1 (stereo not drawn) [Compound 7t, 4-(3-Amino-4-methoxyphenyl)-1-(3,4,5-trimethoxyphenyl)-3-vinylazetidin-2-one]								GI50 [8]: 39.3 nM
